In the test the test system is L1210 leukemia ip in BDF1 mice, survival T/C. The test is described as follows: NCI In Vivo Anticancer Drug Screen. Data for tumor model L1210 Leukemia (intraperitoneal) in B6D2F1 (BDF1) mice. The conditions noted are these: endpoint: mean survival time, higher = longer survival. A digest of the protocol: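 Tumor was transplanted into mice, which were then dosed with test compound or vehicle alone. Survival was recorded for each group, and the treated figure was expressed relative to the control figure.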

Where [1] appears, read: dose: 100.0 mg/kg/injection, schedule: Q01DX001 (ip), vehicle: Klucel (hydroxypropylcellulose) (HPC).
Where [2] appears, read: dose: 100.0 mg/kg/injection, schedule: Q01DX009 (ip), vehicle: saline with Tween-80.
Setting [3] is: dose: 100.0 mg/kg/injection, schedule: Q04DX003 (ip), vehicle: saline with Tween-80.
Setting [4] is: dose: 200.0 mg/kg/injection, schedule: Q01DX001 (ip), vehicle: Klucel (hydroxypropylcellulose) (HPC).
Setting [5] is: dose: 200.0 mg/kg/injection, schedule: Q01DX009 (ip), vehicle: saline with Tween-80.
The mark [6] stands for this setting: dose: 200.0 mg/kg/injection, schedule: Q04DX003 (ip), vehicle: saline with Tween-80.
[7] abbreviates: dose: 400.0 mg/kg/injection, schedule: Q01DX001 (ip), vehicle: Klucel (hydroxypropylcellulose) (HPC).
The mark [8] stands for this setting: dose: 400.0 mg/kg/injection, schedule: Q01DX009 (ip), vehicle: saline with Tween-80.
Setting [9] is: dose: 400.0 mg/kg/injection, schedule: Q04DX003 (ip), vehicle: saline with Tween-80.
[10] abbreviates: dose: 50.0 mg/kg/injection, schedule: Q01DX001 (ip), vehicle: saline.
The mark [11] stands for this setting: dose: 100.0 mg/kg/injection, schedule: Q01DX001 (ip), vehicle: saline.
The mark [12] stands for this setting: dose: 200.0 mg/kg/injection, schedule: Q01DX001 (ip), vehicle: saline.
Where [13] appears, read: dose: 400.0 mg/kg/injection, schedule: Q01DX001 (ip), vehicle: saline.
Where [14] appears, read: dose: 100.0 mg/kg/injection, schedule: Q01DX009 (ip), vehicle: Klucel (hydroxypropylcellulose) (HPC).
The mark [15] stands for this setting: dose: 200.0 mg/kg/injection, schedule: Q01DX009 (ip), vehicle: Klucel (hydroxypropylcellulose) (HPC).
The mark [16] stands for this setting: dose: 400.0 mg/kg/injection, schedule: Q01DX009 (ip), vehicle: Klucel (hydroxypropylcellulose) (HPC).
[17] abbreviates: dose: 100.0 mg/kg/injection, schedule: Q04DX003 (ip), vehicle: Klucel (hydroxypropylcellulose) (HPC).
Where [18] appears, read: dose: 200.0 mg/kg/injection, schedule: Q04DX003 (ip), vehicle: Klucel (hydroxypropylcellulose) (HPC).
[19] abbreviates: dose: 400.0 mg/kg/injection, schedule: Q04DX003 (ip), vehicle: Klucel (hydroxypropylcellulose) (HPC).
Where [20] appears, read: dose: 100.0 mg/kg/injection, schedule: Q04DX003 (ip), vehicle: saline.
[21] abbreviates: dose: 200.0 mg/kg/injection, schedule: Q04DX003 (ip), vehicle: saline.
Where [22] appears, read: dose: 400.0 mg/kg/injection, schedule: Q04DX003 (ip), vehicle: saline.

Where “and” joins values, the source holds several entries; their conditions need not be identical. Equal entries are not always repeated. Toxic doses and inconclusive results are not listed.

Regarding `CC(=O)OCC(OC(C)=O)C(OC(C)=O)C(C=O)OC(C)=O` (configuration not stated), the T/C runs as follows: under setting [1], 105 % of control; under setting [2], 90 % of control; under setting [3], 93 % of control; under setting [4], 97 % of control; under setting [5], 93 % of control; under setting [6], 88 % of control. Also, the T/C is, setting by setting: under setting [7], 105 % of control; under setting [8], 88 % of control; under setting [9], 91 % of control.
On to `CNC(=O)O/N=C/c1cccc(OC)c1`, for which the T/C was 93 % of control under setting [2], 100 % of control under setting [5] and 95 % of control under setting [8].
As to `CC(=O)ONC(=O)C(N)=O`, the T/C is, setting by setting: under setting [10], 95 % of control; under setting [11], 101 % of control; under setting [12], 95 % of control; under setting [13], 103 % of control.
In the case of `CN(C)C=Nc1cc2c(cc1Br)-c1ccccc1C2=O`, the T/C reads like this: under setting [14], 101 % of control; under setting [15], 95 % of control; under setting [16], 93 % of control.
Regarding `O=S1(=O)CC2=C1/C=C/CCCC2`, the T/C by setting is: (dose: 5.0 mg/kg/injection, schedule: Q04DX002 (ip), vehicle: Klucel (hydroxypropylcellulose) (HPC)) 90 % of control; (dose: 10.0 mg/kg/injection, schedule: Q01DX001 (ip), vehicle: saline) 102 % of control; (dose: 10.0 mg/kg/injection, schedule: Q04DX002 (ip), vehicle: Klucel (hydroxypropylcellulose) (HPC)) 96 % of control.
As for `NNC(=O)CNc1cccc(Br)c1`, the T/C by setting is: (dose: 50.0 mg/kg/injection, schedule: Q04DX002 (ip), vehicle: Klucel (hydroxypropylcellulose) (HPC)) 101 % of control and 92 % of control; (dose: 100.0 mg/kg/injection, schedule: Q04DX002 (ip), vehicle: Klucel (hydroxypropylcellulose) (HPC)) 114 % of control and 120 % of control; (dose: 200.0 mg/kg/injection, schedule: Q04DX002 (ip), vehicle: Klucel (hydroxypropylcellulose) (HPC)) 108 % of control.
With `CCN(CC)CCCC(C)Nc1ccnc2c1ccc1ccccc12` (configuration not stated), the T/C was 98 % of control under setting [10], 101 % of control under setting [11], 106 % of control under setting [12] and 112 % of control under setting [13].
Take `Cc1ccc(Cl)cc1NC(=O)C(c1ccccc1)c1ccccc1`: the T/C is, setting by setting: under setting [14], 95 % of control; under setting [17], 90 % of control; under setting [15], 94 % of control; under setting [18], 96 % of control; under setting [16], 95 % of control; under setting [19], 88 % of control.
In the case of `Nc1nc(=O)n(CC(=O)c2ccco2)cc1F`, the T/C is 100 % of control (dose: 100.0 mg/kg/injection, schedule: Q01DX009 (ip), vehicle: saline); 95 % of control under setting [20]; 94 % of control (dose: 200.0 mg/kg/injection, schedule: Q01DX009 (ip), vehicle: saline); 97 % of control under setting [21]; 93 % of control under setting [22].
For the compound `CC(C)(CO)COS(=O)(=O)c1ccc(Br)cc1`, the T/C (dose: 50.0 mg/kg/injection, schedule: Q01DX009 (ip), vehicle: saline with Tween-80) was 89 % of control.
With `O=[N+]([O-])c1ccc2c(c1)/C(=C1/c3cc(Br)ccc3-c3ccc([N+](=O)[O-])cc31)c1cc(Br)ccc1-2`, the T/C is 87 % of control under setting [3], 97 % of control under setting [6] and 92 % of control under setting [9].
`CC(C)=C1C(=O)ON(c2ccccc2)C1=O`: the T/C by setting is: (dose: 50.0 mg/kg/injection, schedule: Q01DX001 (ip), vehicle: Klucel (hydroxypropylcellulose) (HPC)) 100 % of control; under setting [1], 100 % of control; under setting [17], 105 % of control; under setting [4], 105 % of control; under setting [18], 110 % of control; under setting [7], 104 % of control. Moreover, the T/C under setting [19] is 105 % of control.
With `O=C(Nc1c[nH]c(=O)[nH]c1=O)C(Cl)Cl`, the T/C by setting is: (dose: 16.0 mg/kg/injection, schedule: Q01DX Z (ip), vehicle: methylcellulose (MC)) 91 % of control; (dose: 31.0 mg/kg/injection, schedule: Q01DX Z (ip), vehicle: methylcellulose (MC)) 95 % of control; (dose: 50.0 mg/kg/injection, schedule: Q01DX009 (ip), vehicle: Klucel (hydroxypropylcellulose) (HPC)) 103 % of control; (dose: 62.0 mg/kg/injection, schedule: Q01DX Z (ip), vehicle: methylcellulose (MC)) 93 % of control; under setting [14], 104 % of control; (dose: 125.0 mg/kg/injection, schedule: Q01DX Z (ip), vehicle: methylcellulose (MC)) 90 % of control. Further, the T/C under setting [15] is 117 % of control.
In the case of `COc1cc(N(CCCl)CCCl)ccc1C=Nc1ccccc1C(=O)O`, the T/C by setting is: (dose: 2.3 mg/kg/injection, schedule: Q01DX015 (ip), vehicle: carboxymethylcellulose (CMC)) 117 % of control; (dose: 5.0 mg/kg/injection, schedule: Q01DX001 (ip), vehicle: carboxymethylcellulose (CMC)) 121 % of control; (dose: 5.3 mg/kg/injection, schedule: Q01DX015 (ip), vehicle: carboxymethylcellulose (CMC)) 122 % of control; (dose: 10.0 mg/kg/injection, schedule: Q01DX015 (ip), vehicle: carboxymethylcellulose (CMC)) 154 % of control; (dose: 15.0 mg/kg/injection, schedule: Q01DX015 (ip), vehicle: carboxymethylcellulose (CMC)) 119 % of control; (dose: 16.0 mg/kg/injection, schedule: Q01DX015 (ip), vehicle: carboxymethylcellulose (CMC)) 123 % of control. The T/C is 162 % of control (dose: 20.0 mg/kg/injection, schedule: Q01DX001 (ip), vehicle: carboxymethylcellulose (CMC)); 150 % of control (dose: 22.0 mg/kg/injection, schedule: Q01DX001 (ip), vehicle: carboxymethylcellulose (CMC)); 164 % of control (dose: 33.0 mg/kg/injection, schedule: Q01DX001 (ip), vehicle: carboxymethylcellulose (CMC)); 100 % of control (dose: 50.0 mg/kg/injection, schedule: Q01DX001 (ip), vehicle: carboxymethylcellulose (CMC)).
For `CCCCn1cnc2c(SC3CCCC3)ncnc21`, the T/C runs as follows: (dose: 100.0 mg/kg/injection, schedule: Q01DX001 (ip), vehicle: other) 98 % of control; (dose: 200.0 mg/kg/injection, schedule: Q01DX001 (ip), vehicle: other) 96 % of control; (dose: 400.0 mg/kg/injection, schedule: Q01DX001 (ip), vehicle: other) 93 % of control.
Consider `COc1ccc(C(=O)CC(C(=O)O)c2ccc3c(c2)OCO3)cc1OC` (configuration not stated), for which the T/C under setting [2] was 96 % of control, the T/C under setting [5] was 98 % of control and the T/C under setting [8] was 98 % of control.
As to `COc1ccc2c(c1)c1c(C)c3cnccc3c(C)c1n2CCOC(C)=O`, the T/C is 107 % of control (dose: 12.5 mg/kg/injection, schedule: Q01DX009 (ip), vehicle: saline); 100 % of control (dose: 25.0 mg/kg/injection, schedule: Q01DX009 (ip), vehicle: saline); 112 % of control (dose: 50.0 mg/kg/injection, schedule: Q01DX009 (ip), vehicle: saline); 88 % of control (dose: 100.0 mg/kg/injection, schedule: Q01DX001 (ip), vehicle: saline with Tween-80); 100 % of control (dose: 200.0 mg/kg/injection, schedule: Q01DX001 (ip), vehicle: saline with Tween-80); 120 % of control (dose: 400.0 mg/kg/injection, schedule: Q01DX001 (ip), vehicle: saline with Tween-80).
With `C[N+](C)(C)CCOS(=O)(=O)[O-]`, the T/C runs as follows: (dose: 50.0 mg/kg/injection, schedule: Q04DX003 (ip), vehicle: saline) 99 % of control; under setting [20], 97 % of control and 103 % of control; under setting [21], 95 % of control and 105 % of control; under setting [22], 98 % of control.
On to `CSc1ccc(NC(=O)COc2ccccc2)cc1`, for which the T/C reads like this: under setting [14], 102 % of control; under setting [15], 98 % of control; under setting [16], 98 % of control.
